47 compounds from US20230233541A1, “SUBSTITUTED BENZAMIDES AS MODULATORS OF TREX1” (Constellation Pharmaceuticals, Inc., priority 2020, published 2023) can be followed below.

In one assay the target is T1, full length human TREX1 (Homo sapiens, UniProt Q9NSU2).
T1 construct: N-terminally His-Tev tagged full length human TREX1; His-Tev (His tag with TEV protease site) (N); made in house; host or cells: E. coli
T1 sequence (Q9NSU2 1-314): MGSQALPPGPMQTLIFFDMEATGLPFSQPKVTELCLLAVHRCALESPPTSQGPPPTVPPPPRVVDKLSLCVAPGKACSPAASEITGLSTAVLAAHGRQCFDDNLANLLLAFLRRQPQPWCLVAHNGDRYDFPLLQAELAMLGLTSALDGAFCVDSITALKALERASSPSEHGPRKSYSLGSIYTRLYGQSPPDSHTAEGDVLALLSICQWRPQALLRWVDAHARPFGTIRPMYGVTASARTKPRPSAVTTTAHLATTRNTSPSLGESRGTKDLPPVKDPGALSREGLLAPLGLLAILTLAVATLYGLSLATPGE
The assay can be described thus: TREX1 Biochemical Assay (fluorescence assay, degradation of dsDNA substrate). The note with it: 150 pM TREX1, 60 nM dsDNA substrate, 25 minutes at room temperature; read-out: hTREX1 EC50. The method, boiled down:
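E. coli-expressed His-Tev-tagged full-length TREX1 (150 pM) with 60 nM quenched-fluorophore dsDNA in Tris pH 7.4, 150 mM NaCl, 100 mM MgCl2, 1% DMSO, 25 min room temperature, 10-point dose-response. EDTA stop; fluorescence 615 nm (ex 570 nm); IC50 from four-parameter fit against pre-quenched and no-inhibitor controls.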

Assay [1] addresses T2, human TREX2 (residues M44-A279) (Homo sapiens, UniProt Q9BQ50).
T2 construct: human TREX2 (residues M44-A279, expressed in E. coli); His-Tev (His tag with TEV protease site) (N); made in house; host or cells: E. coli
T2 sequence (Q9BQ50 44-279 isoform Q9BQ50-1): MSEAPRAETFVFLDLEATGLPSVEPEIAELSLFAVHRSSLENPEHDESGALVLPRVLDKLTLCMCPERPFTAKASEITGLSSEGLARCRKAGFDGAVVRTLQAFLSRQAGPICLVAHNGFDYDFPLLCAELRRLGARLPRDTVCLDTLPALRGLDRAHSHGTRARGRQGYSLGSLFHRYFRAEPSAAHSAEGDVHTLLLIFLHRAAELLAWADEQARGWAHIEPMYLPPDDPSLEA
The assay can be described thus: TREX2 Biochemical Assay (fluorescence assay, degradation of dsDNA substrate). The note with it: 2.5 nM TREX2, 60 nM dsDNA substrate, 25 minutes at room temperature; read-out: hTREX2 EC50. The procedure, abridged:
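His-Tev-tagged human TREX2 (M44-A279, E. coli-expressed) at 2.5 nM final, with 60 nM TEX615/quencher-labelled dsDNA in pH 7.4 Tris buffer with MgCl2 and 1.0% DMSO, 10-point dose-response, 25 min at room temperature, then EDTA quench. Fluorescence read at 615 nm (ex 570 nm). IC50 from four-parameter fit against pre-quenched and no-inhibitor controls.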

The term EC50 denotes the concentration giving half of the maximal effect.

Turning to `C[C@@H](c1cccnc1)N(Cc1ccc(Cl)cc1Cl)C(=O)c1cccc(F)c1` (single isomer, unassigned) [Compound 154], the concentration giving a half-maximal response (EC50) at full length human TREX1 is more than 10 µM; in assay [1], more than 100 µM.
The matching figures for `O=C(c1ccc(Oc2ccc(F)cc2)cc1)N(Cc1cccnc1)Cc1cc(Cl)cc(Cl)c1` [Compound 74]: more than 10 µM and more than 100 µM.
The matching figures for `N#Cc1ccc(C(=O)N(Cc2cccnc2)Cc2ccc(Cl)cc2Cl)cc1` [Compound 103]: more than 10 µM and more than 100 µM.
The corresponding values for `O=C(c1cccc(-c2ccccc2)c1)N(Cc1cccnc1)Cc1cc(Cl)cc(Cl)c1` [Compound 56] are more than 10 µM and more than 100 µM.
Turning to `COc1cc(C(=O)O)ncc1CN(Cc1cccc(Cl)c1Cl)C(=O)c1cc(F)cc(F)c1` [Compound 208], the concentration giving a half-maximal response (EC50) is less than 0.1 µM on full length human TREX1 and less than 1 µM in assay [1].
The matching figures for `O=C(c1cccc(Oc2ccccc2)c1)N(Cc1cccnc1)Cc1cc(Cl)cc(Cl)c1` [Compound 66]: more than 10 µM and more than 100 µM.
On to `O=C(c1cccc(F)c1)N(Cc1cccnc1)CC1CCCCC1` [Compound 132], for which the results for the EC50 (on full length human TREX1; in assay [1]) were more than 10 µM and more than 100 µM, respectively.
The matching figures for `O=C(O)c1ccc(CN(Cc2ccnc(Cl)c2Cl)C(=O)c2cc(F)cc(F)c2)cn1` [Compound 201]: less than 0.1 µM and 1 to 10 µM.
The matching figures for `Cc1ccc(C(=O)N(Cc2cccnc2)Cc2cc(Cl)cc(Cl)c2)c(Br)c1` [Compound 76]: more than 10 µM and more than 100 µM.
The corresponding values for `O=C(c1cc(F)cc(F)c1)N(Cc1cnc2c(=O)[nH]c(=O)[nH]c2c1)Cc1cccc(Cl)c1Cl` [Compound 181] are 0.1 to 1 µM and 1 to 10 µM.
As to `COCC(=O)N(Cc1cccnc1)Cc1ccc(Cl)cc1Cl` [Compound 92], the values for the EC50 (on full length human TREX1; in assay [1]) were more than 10 µM and more than 100 µM, respectively.
On to `O=C(c1cc(F)cc(F)c1)N(Cc1cccnc1)[C@H](CCO)c1ccc(Cl)cc1Cl` [Compound 260], for which the results for the EC50 (at full length human TREX1; in assay [1]) were less than 0.1 µM and 1 to 10 µM, respectively.
As for `O=C(c1cccc(F)c1)N(Cc1cccnc1)Cc1ccc(Cl)cc1Cl` [Compound 11], the EC50 fell in the range of 1 to 10 µM on full length human TREX1 and 10 to 100 µM in assay [1].
The corresponding values for `O=C(c1cc(F)c(F)cc1F)N(Cc1cccnc1)Cc1ccc(Cl)cc1Cl` [Compound 120] are more than 10 µM and more than 100 µM.
For the compound `O=C(c1cccc(-c2ccccc2)c1)N(Cc1cccnc1)Cc1ccc(Cl)cc1Cl` [Compound 43], the concentration for a half-maximal effect (EC50) at full length human TREX1 was more than 10 µM; in assay [1], more than 100 µM.
For `CC[C@H](c1cccc(OC2COC2)c1Cl)N(Cc1ccc(C(=O)O)nc1)C(=O)c1cc(F)cc(F)c1` [Compound 231], the EC50 at full length human TREX1 was in the range of 0.1 to 1 µM; in assay [1] it was 1 to 10 µM.
The matching figures for `CC[C@H](c1ccc2c(c1Cl)OCO2)N(Cc1ccc(C(=O)O)nc1)C(=O)c1cc(F)cc(F)c1` [Compound 233]: less than 0.1 µM and 1 to 10 µM.
The corresponding values for `Cc1nocc1C(=O)N(Cc1cccnc1)Cc1ccc(Cl)cc1Cl` [Compound 140] are more than 10 µM and more than 100 µM.
The matching figures for `O=C(c1cc(F)cc(F)c1)N(Cc1ccc(-c2cc(C(F)(F)F)n[nH]2)nc1)Cc1ccccc1Cl` [Compound 223]: more than 10 µM and more than 100 µM.
As for `O=C(c1ccc(-c2ccccc2)cc1)N(Cc1cccnc1)Cc1ccc(Cl)cc1Cl` [Compound 24], the EC50 was more than 10 µM on full length human TREX1 and more than 100 µM in assay [1].
As to `CC(C)c1ccc(C(=O)N(Cc2cccnc2)Cc2ccc(Cl)cc2Cl)cc1` [Compound 85], the EC50 was more than 10 µM at full length human TREX1 and more than 100 µM in assay [1].
The corresponding values for `C[C@H](c1ccc(C(N)=O)cc1Cl)N(Cc1cccnc1)C(=O)c1cccc(F)c1` (single isomer, unassigned) [Compound 163] are 0.1 to 1 µM and 10 to 100 µM.
Consider `Cc1ccc(CN(Cc2ccc(Cl)cc2Cl)C(=O)c2cccc(F)c2)cn1` [Compound 110], for which the EC50 is more than 10 µM on full length human TREX1 and more than 100 µM in assay [1].
The corresponding values for `Cc1ncc(CN(Cc2ccc(Cl)cc2Cl)C(=O)c2cccc(F)c2)cn1` [Compound 108] are more than 10 µM and more than 100 µM.
In the case of `O=C(c1ccc(F)c(Br)c1)N(Cc1cccnc1)Cc1ccc(Cl)cc1Cl` [Compound 12], the values for the EC50 (at full length human TREX1; in assay [1]) were 1 to 10 µM and more than 100 µM, respectively.
The matching figures for `O=C(c1ccc(-c2ccccc2)cc1)N(Cc1cccnc1)Cc1cc(Cl)cc(Cl)c1` [Compound 58]: more than 10 µM and more than 100 µM.
The corresponding values for `Cn1ncc2ccc(CN(Cc3cccnc3)C(=O)c3cccc(F)c3)cc21` [Compound 128] are 1 to 10 µM and more than 100 µM.
For the compound `CCOc1cccc([C@@H](CC)N(Cc2ccc(C(=O)O)nc2)C(=O)c2cc(F)cc(F)c2)c1Cl` [Compound 228], the EC50 is less than 0.1 µM at full length human TREX1 and 1 to 10 µM in assay [1].
The corresponding values for `CC[C@@H](c1ccc2c(c1Cl)OCO2)N(Cc1ccc(C(=O)O)nc1)C(=O)c1cc(F)cc(F)c1` [Compound 230] are less than 0.1 µM and 1 to 10 µM.
The matching figures for `CC(=O)Nc1ccc(CN(Cc2cccc(Cl)c2Cl)C(=O)c2cccc(F)c2)cn1` [Compound 214]: 1 to 10 µM and more than 100 µM.
`CC(C)Oc1ccc(C(=O)N(Cc2cccnc2)Cc2cc(Cl)cc(Cl)c2)cc1` [Compound 54]: the EC50 at full length human TREX1 was more than 10 µM; in assay [1], more than 100 µM.
The matching figures for `O=C(Cc1ccccc1)N(Cc1cccnc1)Cc1ccc(Cl)cc1Cl` [Compound 94]: more than 10 µM and more than 100 µM.
The corresponding values for `C[C@@H](c1ccc(C(N)=O)cc1Cl)N(Cc1cccnc1)C(=O)c1cccc(F)c1` (single isomer, unassigned) [Compound 164] are more than 10 µM and 10 to 100 µM.
Turning to `O=C(c1cccc(F)c1)N(Cc1cccnc1)Cc1c(F)cccc1Cl` [Compound 130], the values for the EC50 (on full length human TREX1; in assay [1]) were 1 to 10 µM and 10 to 100 µM, respectively.
For the compound `Cc1cc(-c2ccc(CN(Cc3ccccc3Cl)C(=O)c3cc(F)cc(F)c3)cn2)[nH]n1` [Compound 219], the EC50 on full length human TREX1 was 1 to 10 µM; in assay [1], 10 to 100 µM.
Turning to `O=C(c1cccc(Br)c1)N(Cc1cccnc1)Cc1cc(Cl)cc(Cl)c1` [Compound 30], the EC50 was more than 10 µM at full length human TREX1 and more than 100 µM in assay [1].
For `O=C(c1ccc2ccccc2c1)N(Cc1cccnc1)Cc1ccc(Cl)cc1Cl` [Compound 28], the values for the EC50 (on full length human TREX1; in assay [1]) were more than 10 µM and more than 100 µM, respectively.
On to `N#CCC[C@H](c1ccccc1Cl)N(Cc1cccnc1)C(=O)c1cc(F)cc(F)c1` [Compound 178], for which the EC50 on full length human TREX1 was 1 to 10 µM; in assay [1], 10 to 100 µM.
The corresponding values for `O=C(c1cccc(F)c1)N(Cc1cccnc1)Cc1cccc(F)c1Cl` [Compound 137] are 0.1 to 1 µM and 10 to 100 µM.
Regarding `O=C(c1ccccc1)N(Cc1cccnc1)Cc1ccc(Cl)cc1Cl` [Compound 2], the concentration for a half-maximal effect (EC50) on full length human TREX1 is 1 to 10 µM; in assay [1] it was more than 100 µM.
As to `O=C(c1ccc(O)c(Cl)c1)N(Cc1cccnc1)Cc1cc(Cl)cc(Cl)c1` [Compound 35], the EC50 on full length human TREX1 is more than 10 µM; in assay [1] it was more than 100 µM.
Turning to `C[C@H](c1cccnc1)N(Cc1ccc(Cl)cc1Cl)C(=O)c1cccc(F)c1` (single isomer, unassigned) [Compound 153], the concentration for a half-maximal effect (EC50) is more than 10 µM on full length human TREX1 and more than 100 µM in assay [1].
Consider `O=C(CCCCc1ccccc1)N(Cc1cccnc1)Cc1ccc(Cl)cc1Cl` [Compound 93], for which the EC50 on full length human TREX1 is more than 10 µM; in assay [1], more than 100 µM.
As for `O=C(c1ccon1)N(Cc1cccnc1)Cc1ccc(Cl)cc1Cl` [Compound 118], the concentration giving a half-maximal response (EC50) at full length human TREX1 was more than 10 µM; in assay [1], more than 100 µM.
The matching figures for `O=C(O)c1ccc(CN(Cc2ccccc2Cl)C(=O)c2cccc(F)c2)cn1` [Compound 151]: 0.1 to 1 µM and 10 to 100 µM.
The corresponding values for `COC(=O)CC[C@H](c1ccccc1Cl)N(Cc1cccnc1)C(=O)c1cc(F)cc(F)c1` [Compound 241] are 1 to 10 µM and 10 to 100 µM.
The corresponding values for `O=C(c1cc(F)cc(F)c1)N(Cc1cnccc1Cl)Cc1cnccc1Cl` [Compound 176] are 0.1 to 1 µM and 1 to 10 µM.
